Test results from patent US20080161309A1, “Novel Compounds” (priority 2004, published 2008).
pKi: −log10 of the molar value. Counter-ions that a name gives are not always drawn.

Tests used:
[1] = biological target: T1, human norepinephrine transporter (hNET) (Homo sapiens, UniProt P23975); assay: hNET receptor binding, [125I]-RTI-55, HEK-293 membranes; conditions: Cheng-Prusoff, read-out: NET Ki
T1 construct: expressed in transfected cells; host or cells: HEK-293, membranes
Description: Cell pastes of HEK-293 cells transfected with a human norepinephrine transporter cDNA were prepared. The cell pastes were resuspended in 400 to 700 ml of Krebs-HEPES assay buffer (25 mM HEPES, 122 mM NaCl, 3 mM KCl, 1.2 mM MgSO4, 1.3 mM CaCl2, and 11 mM glucose, pH 7.4) with a Polytron homogenizer at setting 7 for 30 seconds. Aliquots of membranes (5 mg/ml protein) were stored in liquid nitrogen until used.
The binding assay was set up in Beckman deep-well polypropylene plates with a total volume of 250 μl containing: drug (10^−5M to 10^−12M), cell membranes, and […] [^125I]-RTI-55 (Perkin Elmer, NEX-272; specific activity 2200 Ci/mmol). The reaction was incubated by gentle agitation for 90 minutes at room temperature and was terminated by filtration through Whatman GF/C filter plates using a Brandel 96-well plate harvester. Scintillation fluid (100 μl) was added to each well, and bound [^125I]-RTI-55 was determined using a Wallac Trilux Beta Plate Counter. Test compounds were run in duplicate, and specific binding was defined as the difference between binding in the presence and absence of 10 μM desipramine.
Excel and GraphPad Prism software were used for data calculation and analysis. IC50 values were converted to Ki values using the Cheng-Prusoff equation. The Ki values (nM) for the hNET are reported below in Table 1.

[2] = biological target: T2, human serotonin transporter (hSERT) (Homo sapiens, UniProt P31645); assay: hSERT receptor binding, [125I]-RTI-55, HEK-293 membranes; conditions: [125I]-RTI-55, HEK-293 membranes, Cheng-Prusoff; read-out: SERT Ki
T2 construct: expressed in transfected cells; host or cells: HEK-293, membranes
Description: Cell pastes of HEK-293 cells transfected with a human serotonin transporter cDNA were prepared. […] Aliquots of membranes (−2.5 mg/ml protein) were stored in liquid nitrogen until used.
The reaction was incubated and gently agitated for 90 minutes at room temperature, and terminated by removal of assay volume. […] Test compounds were run in duplicate, and specific binding was defined as the difference between binding in the presence and absence of 10 μM citalopram. Excel and GraphPad Prism software were used for data calculation and analysis. IC50 values were converted to Ki values using the Cheng-Prusoff equation.

T1 sequence (P23975 whole entry): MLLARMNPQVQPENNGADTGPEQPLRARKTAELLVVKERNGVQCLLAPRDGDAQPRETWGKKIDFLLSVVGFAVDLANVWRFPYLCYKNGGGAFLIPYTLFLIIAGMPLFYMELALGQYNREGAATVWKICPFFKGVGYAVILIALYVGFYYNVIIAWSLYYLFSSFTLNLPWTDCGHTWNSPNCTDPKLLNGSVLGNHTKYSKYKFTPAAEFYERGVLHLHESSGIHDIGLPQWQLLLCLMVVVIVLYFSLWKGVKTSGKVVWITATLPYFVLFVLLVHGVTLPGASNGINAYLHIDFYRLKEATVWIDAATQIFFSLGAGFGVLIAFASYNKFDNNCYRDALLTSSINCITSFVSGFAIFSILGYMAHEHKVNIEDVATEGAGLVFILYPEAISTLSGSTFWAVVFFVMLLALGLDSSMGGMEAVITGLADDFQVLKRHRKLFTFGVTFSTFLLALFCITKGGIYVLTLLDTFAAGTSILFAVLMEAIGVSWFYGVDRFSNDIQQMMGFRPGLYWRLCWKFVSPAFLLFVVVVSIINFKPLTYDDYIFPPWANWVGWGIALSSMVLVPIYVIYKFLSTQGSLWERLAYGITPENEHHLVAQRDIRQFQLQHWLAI
T2 sequence (P31645 whole entry): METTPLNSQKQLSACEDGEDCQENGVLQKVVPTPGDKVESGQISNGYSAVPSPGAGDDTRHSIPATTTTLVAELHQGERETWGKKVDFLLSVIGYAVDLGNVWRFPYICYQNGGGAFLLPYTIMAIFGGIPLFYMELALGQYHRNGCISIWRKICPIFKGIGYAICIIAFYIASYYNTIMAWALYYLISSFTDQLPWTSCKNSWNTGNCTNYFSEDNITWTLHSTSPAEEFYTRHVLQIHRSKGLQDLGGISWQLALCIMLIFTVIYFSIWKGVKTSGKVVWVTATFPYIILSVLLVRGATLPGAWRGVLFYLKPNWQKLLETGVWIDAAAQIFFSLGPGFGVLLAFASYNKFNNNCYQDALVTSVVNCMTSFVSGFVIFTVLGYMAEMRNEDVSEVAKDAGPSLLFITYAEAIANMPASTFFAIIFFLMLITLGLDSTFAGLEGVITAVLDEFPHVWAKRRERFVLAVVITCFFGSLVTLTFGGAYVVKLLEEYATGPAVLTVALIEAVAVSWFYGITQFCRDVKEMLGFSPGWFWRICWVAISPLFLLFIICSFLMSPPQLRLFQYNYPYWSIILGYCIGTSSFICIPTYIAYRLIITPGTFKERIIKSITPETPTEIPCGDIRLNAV

Structure (SMILES) | pKi [1] | pKi [2]
Fc1cccc([C@H](Oc2c(F)cc(F)cc2F)[C@@H]2CNCCO2)c1 [Example 65, (2S)-2-[(1S)-(3-Fluorophenyl) (2,4,6-trifluorophenoxy)methyl] morpholine hydrochloride] | 7.80 | 6.29
Fc1cc(F)c(Cl)c(O[C@@H](c2ccccc2)[C@@H]2CNCCO2)c1 [Example 83, (2S)-2-[(1S)-(2-Chloro-3,5-difluorophenoxy)phenylmethyl]morpholine fumarate] | 8.05 | 6.65
Fc1cccc([C@H](Oc2c(F)cccc2Cl)[C@@H]2CNCCO2)c1 [Example 60, (2S)-2-[(1S)-(2-Chloro-6-fluorophenoxy) (3-fluorophenyl)methyl] morpholine hydrochloride] | 8.72 | 6.50
COc1c(Cl)cccc1O[C@@H](c1ccccc1)[C@@H]1CNCCO1 [Example 92, (2S)-2-[(1S)-(3-Chloro-2-methoxyphenoxy)phenylmethyl] morpholine fumarate] | 7.06 | 7.14
Fc1cc(Cl)ccc1O[C@@H](c1ccccn1)[C@@H]1CNCCO1 [Example 104, (2S)-2-[(1S)-(4-chloro-2-fluorophenoxy)(pyridin-2-yl)methyl]morpholine fumarate] | 7.68 | 6.31
COc1c(Cl)c(Cl)cc(Cl)c1O[C@@H](c1ccccc1)[C@@H]1CNCCO1 [Example 91, (2S)-2-[(1S)-Phenyl-(3,4,6-trichloro-2-methoxyphenoxy)methyl] morpholine fumarate] | 6.64 | 7.57
Clc1cc(Cl)c(O[C@@H](c2ccccc2)[C@@H]2CNCCO2)c(Cl)c1 [Example 98, (2S)-2-[(1S)-Phenyl-(2,4,6-trichlorophenoxy)methyl] morpholine fumarate] | 6.12 | 7.30
CCCc1ccccc1O[C@@H](c1cccc(F)c1)[C@@H]1CNCCO1 [Example 66, (2S)-2-[(1S)-(3-Fluorophenyl) (2-propylphenoxy)methyl] morpholine hydrochloride] | 7.70 | 5.99
Fc1ccc(O[C@@H](c2ccc(Cl)cc2)[C@@H]2CNCCO2)c(Cl)c1 [Example 72, (2S)-2-[(1S)-(2-Chloro-4-fluorophenoxy) (4-chlorophenyl)methyl] morpholine hydrochloride] | 7.04 | 7.10
Clc1cccc(O[C@@H](c2ccccc2)[C@@H]2CNCCO2)c1Cl [Example 81, (2S)-2-[(1S)-(2,3-Dichlorophenoxy)phenylmethyl] morpholine fumarate] | 8.15 | 7.58
COc1ccc(O[C@@H](c2ccccn2)[C@@H]2CNCCO2)c(Cl)c1 [Example 106, (2S)-2-[(1S)-(2-chloro-4-methoxyphenoxy)(pyridin-2-yl)methyl]morpholine fumarate] | 7.86 | 6.67
Fc1ccc(Cl)c(O[C@@H](c2cccc(Cl)c2)[C@@H]2CNCCO2)c1 [Example 53, (2S)-2-[(1S)-(2-Chloro-5-fluorophenoxy) (3-chlorophenyl)methyl] morpholine hydrochloride] | 7.58 | 6.46
COc1ccc(C)cc1O[C@@H](c1cccc(F)c1)[C@@H]1CNCCO1 [Example 51, (2S)-2-[(1S)-(3-Fluorophenyl)-(2-methoxy-5-methylphenoxy)methyl] morpholine hydrochloride] | 7.58 | 5.98
COc1cccc([C@H](Oc2cc(F)ccc2Cl)[C@@H]2CNCCO2)c1 [Example 69, (2S)-2-[(1S)-(2-Chloro-5-fluorophenoxy) (3-methoxyphenyl)methyl] morpholine hydrochloride] | 8.10 | 6.16
Fc1cccc([C@H](Oc2c(F)cccc2F)[C@@H]2CNCCO2)c1 [Example 47, (2S)-2-[(1S)-(2,6-Difluorophenoxy)-(3-fluorophenyl)methyl] morpholine hydrochloride] | 8.16 | 6.01
